Experimental data: patent US20250032474A1, “COMBINATION OF 8-CHLORO-N-(4-(TRIFLUOROMETHOXY)PHENYL)QUINOLIN-2-AMINE AND ITS DERIVATIVES WITH A S1P RECEPTOR MODULATOR” (ABIVAX, priority 0001, published 2025)

Legend:
[1] = test system: cytokines (TNFα, IL-6, IFNg, and IL17) in blood; test: T cell transfer adoptive model of colitis, cytokine levels in blood (V-PLEX proinflammatory panel); assay type: in vivo, C57BL/6NRj-Rag2^tm1Ciphe/Rj mice; settings: day 55; oral daily; ABX464 100 mg/kg, etrasimod 3 mg/kg, ozanimod 1.5 mg/kg, alone or combined
Method: (§1) 8-week-old male C57BL/6 mice and 6-week-old male C57BL/6NRj-Rag2^tm1Ciphe/Rj mice were purchased from Janvier Labs and housed in accordance with French and European regulations. The colony is maintained at 21±1° C., 50±5% humidity and under an alternating 12/12-hours light/dark cycle (light at 6:00 AM). Standard food and water were given ad libitum. Animals were allowed to acclimate to the animal facility at least 10 days prior to conducting the study.
Spleens were dissected from C57BL/6 male donor mice and placed in a PBS+2% FBS buffer. Single-cell suspension was generated with Gentle Macs Dissociator followed by mashing cells through 40-μm nylon mesh strainers. Cells were pelleted and suspended in ACK lysis buffer for 5 minutes at RT (room temperature) followed by the addition of cold PBS+2% FBS buffer. CD4+ T cells were enriched by negative selection using a CD4+ T-cell isolation kit (Miltenyi) and LS magnetic columns. The flow through was collected, and cells were centrifuged and resuspended in PBS+2% FBS buffer. Antibodies (CD45RB-PE; CD4 FITC) were added and incubated on ice for 30 minutes protected from light. Cells were washed with buffer, centrifuged, resuspended and sorted using BD FACSAria™ Fusion Flow Cytometer. CD4+CD45high and CD4+CD45low cells were sorted, centrifuged and resuspended in sterile PBS. A total of 5×10^5 cells CD4+CD45high or CD4+CD45low were intraperitoneally injected to 6-week-old male C57BL/6NRj-Rag2^tm1Ciphe/Rj mice. The group “high” (injected with CD4+CD45high) represents the […] and the group “low” (injected with CD4+CD45low) represents the […].
Rag2^tm1Ciphe/Rj mice injected with CD4+CD45high or CD4+CD45low (controls) were orally dosed daily (10 ml/kg) beginning on the day of the transfer (1 h before the cell transfer at Day 0) until day 55 with vehicle (0.5% methylcellulose) and Rag2^tm1Ciphe/Rj mice injected with CD4+CD45high were orally dosed daily with one of the following 8-Chloro-N-(4-(trifluoromethoxy)phenyl)quinolin-2-amine (ABX464) (100 mg/kg), Etrasimod (3 mg/kg), Ozanimod (1.5 mg/kg), ABX464+Etrasimod (100 mg/kg and 3 mg/kg) or ABX464+Ozanimod (100 mg/kg and 1.5 mg/kg). All mice were weighed daily.
At day 55, mice were anesthetized with isoflurane. Blood was collected at Tmax and mice were euthanized to harvest tissues. Cytokines concentrations plasma were determined using V-PLEX proinflammatory Panel mouse kit (Meso Scale Diagnostics).
Statistical analysis was performed on mean+/−standard deviation by one way ANOVA followed by Kruskal-Wallis's multiple comparisons test. Asterisk indicates the significance of the differences: *P<0.05, **P<0.01, ***P<0.001, ****P<0.0001.
In addition, a Welch ANOVA was performed on log transformed data for each cytokine, based on the above results.
A synergy was assessed by comparing each combination group effect versus vehicle to the sum of the corresponding compound alone groups' effects versus vehicle (Bonferroni-Holm's adjustment for multiplicity).
The following tables give the estimation and 95% confidence interval (95% CI) of the difference between Combination effect and Sum of compounds alone effects for each cytokine.

[2] = test system: T cell transfer adoptive model of colitis; test: T cell transfer adoptive model of colitis, body weight; assay type: in vivo, C57BL/6NRj-Rag2^tm1Ciphe/Rj mice; settings: day 55; oral daily; ABX464 100 mg/kg, etrasimod 3 mg/kg, ozanimod 1.5 mg/kg, alone or combined
Method: as §1
Spleens were dissected from C57BL/6 male donor mice and placed in a PBS+2% FBS buffer. Single-cell suspension was generated with Gentle Macs Dissociator followed by mashing cells through 40-μm nylon mesh strainers. Cells were pelleted and suspended in ACK lysis buffer for 5 minutes at RT (room temperature) followed by the addition of cold PBS+2% FBS buffer. CD4+ T cells were enriched by negative selection using a CD4+ T-cell isolation kit (Miltenyi) and LS magnetic columns. The flow through was collected, and cells were centrifuged and resuspended in PBS+2% FBS buffer. Antibodies (CD45RB-PE; CD4 FITC) were added and incubated on ice for 30 minutes protected from light. Cells were washed with buffer, centrifuged, resuspended and sorted using BD FACSAria™ Fusion Flow Cytometer. […]
Weight was monitored over the period of the study (55 days), and the effect on body weight over the time period is shown in FIGS. 1A-1B. […]

[3] = test system: chronic plaque psoriasis; relapsing-remitting multiple sclerosis; settings: patients with moderate to severe chronic plaque psoriasis and patients with relapsing-remitting multiple sclerosis; cited from earlier work
[4] = test system: peripheral blood lymphocytes; settings: oral administration; cited from earlier work
active SPMS = settings: cited from earlier work

Row | SMILES | plasma level of IFNg [1] | plasma level of IL17 [1] | plasma level of IL-6 [1] | plasma level of TNFα [1] | body weight [2] | clinical benefit in phase II/phase III trials [3] | number of peripheral blood lymphocytes [4] | risk of disability and MS relapses (active SPMS)
1 | FC(F)(F)Oc1ccc(Nc2ccc3cccc(Cl)c3n2)cc1 [ABX464, 8-Chloro-N-(4-(trifluoromethoxy)phenyl)quinolin-2-amine] | did not reduce | reduced | did not reduce | reduced | weight gain | – | – | –
2 | CCC/N=C1\S/C(=C\c2ccc(OC[C@H](O)CO)c(Cl)c2)C(=O)N1c1ccccc1C [Ponesimod, (R)-5-[3-chloro-4-(2,3-dihydroxy-propoxy)-benz[Z]ylidene]-2-([Z]-propylimino)-3-o-tolyl-thiazolidin-4-one] | – | – | – | – | – | clinical benefit | consistent, sustained, and dose-dependent reduction | –
3 | O=C(O)C[C@H]1CCc2c1[nH]c1ccc(OCc3ccc(C4CCCC4)c(C(F)(F)F)c3)cc21 [Etrasimod] | reduced | did not reduce | did not reduce | reduced | protection from weight loss | – | – | –
4 | CC(C)Oc1ccc(-c2nc(-c3cccc4c3CC[C@@H]4NCCO)no2)cc1C#N [Ozanimod] | reduced | did not reduce | did not reduce | reduced | – | – | – | –
5 | CCc1cc(/C(C)=N/OCc2ccc(C3CCCCC3)c(C(F)(F)F)c2)ccc1CN1CC(C(=O)O)C1 [Siponimod, 1-(4-[1-[(E)-4-Cyclohexyl-3-trifluoromethyl-benzyloxyimino]-ethyl]-2-ethyl-benzyl)-azetidine-3-carboxylic acid] | – | – | – | – | – | – | – | decreases
